Results published in ChEMBL document CHEMBL1201862, “PubChem BioAssay data set” (2004).
The source made the active and inactive calls.

Experiments:
[1] = biological target: SWI/SNF-related matrix-associated actin-dependent regulator of chromatin subfamily A member 2 (Homo sapiens, UniProt P51531); experiment: Luminescence-based cell-based high throughput dose response assay to identify activators of the function of SWI/SNF related, matrix associated, actin dependent regulator of chromatin, subfamily a, member 2 (SMARCA2, BRM).; type: functional
[2] = Counterscreen for activators of the function of SWI/SNF related, matrix associated, actin dependent regulator of chromatin, subfamily a, member 2 (SMARCA2, BRM): Luminescence-based cell-based high throughput dose response assay to identify non-selective compounds using the VP16 reporter assay.; type: functional
[3] = biological target: E3 ubiquitin-protein ligase UHRF1 (Homo sapiens, UniProt Q96T88); experiment: Counterscreen for inhibitors of 5-meCpG-binding domain protein 2 (MBD2): TRFRET-based biochemical high throughput dose response assay to identify inhibitors of binding of ubiquitin-like with PHD and ring finger domains 1 (UHRF1) to methylated oligonucleotide.
Caspase-6 = Caspase-6 (Homo sapiens, UniProt P55212); experiment: inhibition of CASP6 peptide cleavage – biochemical, VEID-R110 fluorescence, cherry-pick, dose response (AID 720632)
[4] = biological target: Disintegrin and metalloproteinase domain-containing protein 17 (Homo sapiens, UniProt P78536); experiment: exosite inhibitors of ADAM17, dose response, biochemical (AID 743260)
[5] = inhibition of ADAM10 peptide cleavage – biochemical, FRET peptide substrate, recombinant human ADAM10, selectivity assay for ADAM17 exosite inhibitor project, dose response (AID 743259);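 also: ADAM10 enzyme cleaving a FRET peptide substrate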
[6] = A549 lung cell viability reduction – CellTiter-Glo luminescence, cherry-pick, cytotoxicity control, dose response (AID 743484); type: functional, cell-based
[7] = ATP-based viability loss in HEK293T cells – cell-based, CellTiter-Glo luminescence, cherry-picked samples, set 4, cytotoxicity control, dose response (AID 743441); type: functional; conditions: HEK293
[8] = biological target: 1-phosphatidylinositol 4,5-bisphosphate phosphodiesterase gamma-1 (Homo sapiens, UniProt P19174); experiment: Counterscreen for inhibitors of phospholipase C isozymes (PLC-B3): Fluorescence-based biochemical high throughput dose response assay to identify inhibitors of phospholipase C isozymes (PLC-gamma1).
[9] = biological target: 1-phosphatidylinositol 4,5-bisphosphate phosphodiesterase beta-3 (Homo sapiens, UniProt Q01970); experiment: Fluorescence-based biochemical high throughput dose response assay to identify inhibitors of phospholipase C isozymes (PLC-B3).
fMet-Leu-Phe receptor = fMet-Leu-Phe receptor (Homo sapiens, UniProt P21462); experiment: formyl peptide receptor binders – dose response (AID 519); type: functional
[10] = biological target: Potassium channel subfamily K member 3 (Homo sapiens, UniProt O14649); experiment: inhibition of human KCNK3 channel flux – CHO cells, FluxOR thallium flux, SAR follow-up (AID 652212); type: functional
[11] = Luminescence Cell-Based Dose Retest to Confirm Inhibitors of Cancer Stem Cells. [Related pubchem assays (depositor defined):AID2717, AID2721]; type: functional; conditions: Homo sapiens
[12] = viability loss in HepG2 hepatoma cells – cell-based, ATP luminescence, cherry-pick, activator set 2, cytotoxicity control, dose response (AID 1053143); type: functional
[13] = biological target: T1, Methionyl-tRNA synthetase, putative (Trypanosoma brucei brucei, UniProt Q38C91); type: functional, Trypanosoma brucei brucei strain 927/4 GUTat10.1
T1 sequence (Q38C91 whole entry): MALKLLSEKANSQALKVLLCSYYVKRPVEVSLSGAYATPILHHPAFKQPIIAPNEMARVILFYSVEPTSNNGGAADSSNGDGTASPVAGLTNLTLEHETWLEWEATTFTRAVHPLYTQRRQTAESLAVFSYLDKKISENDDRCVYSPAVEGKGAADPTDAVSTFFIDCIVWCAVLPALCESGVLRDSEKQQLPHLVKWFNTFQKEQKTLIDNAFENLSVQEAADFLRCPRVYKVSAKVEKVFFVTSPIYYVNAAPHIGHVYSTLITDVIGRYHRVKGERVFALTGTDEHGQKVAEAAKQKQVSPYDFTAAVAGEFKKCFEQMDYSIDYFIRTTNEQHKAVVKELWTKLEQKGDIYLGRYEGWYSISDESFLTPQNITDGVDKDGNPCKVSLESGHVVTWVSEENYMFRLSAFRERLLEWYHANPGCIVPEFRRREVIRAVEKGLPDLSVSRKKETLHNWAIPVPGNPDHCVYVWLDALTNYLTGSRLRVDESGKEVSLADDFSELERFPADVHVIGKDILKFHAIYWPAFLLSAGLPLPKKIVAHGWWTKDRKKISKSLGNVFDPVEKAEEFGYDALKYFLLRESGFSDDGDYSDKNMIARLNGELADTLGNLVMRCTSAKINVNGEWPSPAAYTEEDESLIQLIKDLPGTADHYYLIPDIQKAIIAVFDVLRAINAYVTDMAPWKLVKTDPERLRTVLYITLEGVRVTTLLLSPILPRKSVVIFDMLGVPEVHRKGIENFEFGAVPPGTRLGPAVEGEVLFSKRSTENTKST

[14] = Counterscreen for inhibitors of Trypanosoma brucei methionyl tRNA synthetase (MetRS): Luminescence-based cell-based high throughput dose response assay to identify compounds that are cytotoxic to Jurkat human T lymphocyte cells.; type: functional
[15] = biological target: T1, Methionyl-tRNA synthetase, putative; type: functional, Trypanosoma brucei brucei strain 927/4 GUTat10.1; remark: listed apart in the source
[16] = Late stage counterscreen for inhibitors of Trypanosoma brucei methionyl tRNA synthetase (MetRS): Luminescence-based cell-based high throughput dose response assay to identify compounds that are cytotoxic to Jurkat human T lymphocyte cells.; type: functional

1-phosphatidylinositol 4,5-bisphosphate phosphodiesterase gamma-1, sequence (P19174 whole entry): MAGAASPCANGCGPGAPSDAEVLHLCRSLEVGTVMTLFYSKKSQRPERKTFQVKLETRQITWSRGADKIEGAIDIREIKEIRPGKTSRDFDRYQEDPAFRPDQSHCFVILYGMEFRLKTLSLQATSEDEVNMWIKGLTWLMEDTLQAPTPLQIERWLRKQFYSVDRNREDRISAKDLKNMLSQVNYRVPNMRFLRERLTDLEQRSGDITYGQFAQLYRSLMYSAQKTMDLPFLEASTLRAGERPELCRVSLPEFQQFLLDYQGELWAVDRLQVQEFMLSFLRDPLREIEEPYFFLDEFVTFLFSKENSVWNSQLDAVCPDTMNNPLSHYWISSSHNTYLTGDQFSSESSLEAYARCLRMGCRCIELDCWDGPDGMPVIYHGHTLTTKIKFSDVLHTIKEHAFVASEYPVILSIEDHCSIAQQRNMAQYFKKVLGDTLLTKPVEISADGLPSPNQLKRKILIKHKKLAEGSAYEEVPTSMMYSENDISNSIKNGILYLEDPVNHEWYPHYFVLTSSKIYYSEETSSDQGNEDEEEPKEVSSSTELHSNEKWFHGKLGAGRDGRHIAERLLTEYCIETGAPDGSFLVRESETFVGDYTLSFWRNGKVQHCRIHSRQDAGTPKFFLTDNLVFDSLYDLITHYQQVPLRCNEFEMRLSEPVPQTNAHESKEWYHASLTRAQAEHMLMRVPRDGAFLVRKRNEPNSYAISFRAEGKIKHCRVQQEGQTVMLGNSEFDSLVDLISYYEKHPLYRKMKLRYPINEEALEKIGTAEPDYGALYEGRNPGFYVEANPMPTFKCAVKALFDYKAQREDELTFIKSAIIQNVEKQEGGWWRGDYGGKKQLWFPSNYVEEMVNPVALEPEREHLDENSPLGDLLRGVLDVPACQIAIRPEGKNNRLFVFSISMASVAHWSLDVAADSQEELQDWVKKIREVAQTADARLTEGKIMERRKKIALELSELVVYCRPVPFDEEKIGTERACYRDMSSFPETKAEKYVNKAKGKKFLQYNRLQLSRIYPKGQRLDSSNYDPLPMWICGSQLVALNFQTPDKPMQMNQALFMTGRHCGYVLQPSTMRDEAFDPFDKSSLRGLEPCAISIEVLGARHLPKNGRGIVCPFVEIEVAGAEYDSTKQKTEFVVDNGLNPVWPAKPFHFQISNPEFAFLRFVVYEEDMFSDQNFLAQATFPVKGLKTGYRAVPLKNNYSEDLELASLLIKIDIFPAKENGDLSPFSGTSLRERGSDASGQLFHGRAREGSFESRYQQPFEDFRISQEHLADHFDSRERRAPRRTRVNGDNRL
SWI/SNF-related matrix-associated actin-dependent regulator of chromatin subfamily A member 2, sequence (P51531 whole entry): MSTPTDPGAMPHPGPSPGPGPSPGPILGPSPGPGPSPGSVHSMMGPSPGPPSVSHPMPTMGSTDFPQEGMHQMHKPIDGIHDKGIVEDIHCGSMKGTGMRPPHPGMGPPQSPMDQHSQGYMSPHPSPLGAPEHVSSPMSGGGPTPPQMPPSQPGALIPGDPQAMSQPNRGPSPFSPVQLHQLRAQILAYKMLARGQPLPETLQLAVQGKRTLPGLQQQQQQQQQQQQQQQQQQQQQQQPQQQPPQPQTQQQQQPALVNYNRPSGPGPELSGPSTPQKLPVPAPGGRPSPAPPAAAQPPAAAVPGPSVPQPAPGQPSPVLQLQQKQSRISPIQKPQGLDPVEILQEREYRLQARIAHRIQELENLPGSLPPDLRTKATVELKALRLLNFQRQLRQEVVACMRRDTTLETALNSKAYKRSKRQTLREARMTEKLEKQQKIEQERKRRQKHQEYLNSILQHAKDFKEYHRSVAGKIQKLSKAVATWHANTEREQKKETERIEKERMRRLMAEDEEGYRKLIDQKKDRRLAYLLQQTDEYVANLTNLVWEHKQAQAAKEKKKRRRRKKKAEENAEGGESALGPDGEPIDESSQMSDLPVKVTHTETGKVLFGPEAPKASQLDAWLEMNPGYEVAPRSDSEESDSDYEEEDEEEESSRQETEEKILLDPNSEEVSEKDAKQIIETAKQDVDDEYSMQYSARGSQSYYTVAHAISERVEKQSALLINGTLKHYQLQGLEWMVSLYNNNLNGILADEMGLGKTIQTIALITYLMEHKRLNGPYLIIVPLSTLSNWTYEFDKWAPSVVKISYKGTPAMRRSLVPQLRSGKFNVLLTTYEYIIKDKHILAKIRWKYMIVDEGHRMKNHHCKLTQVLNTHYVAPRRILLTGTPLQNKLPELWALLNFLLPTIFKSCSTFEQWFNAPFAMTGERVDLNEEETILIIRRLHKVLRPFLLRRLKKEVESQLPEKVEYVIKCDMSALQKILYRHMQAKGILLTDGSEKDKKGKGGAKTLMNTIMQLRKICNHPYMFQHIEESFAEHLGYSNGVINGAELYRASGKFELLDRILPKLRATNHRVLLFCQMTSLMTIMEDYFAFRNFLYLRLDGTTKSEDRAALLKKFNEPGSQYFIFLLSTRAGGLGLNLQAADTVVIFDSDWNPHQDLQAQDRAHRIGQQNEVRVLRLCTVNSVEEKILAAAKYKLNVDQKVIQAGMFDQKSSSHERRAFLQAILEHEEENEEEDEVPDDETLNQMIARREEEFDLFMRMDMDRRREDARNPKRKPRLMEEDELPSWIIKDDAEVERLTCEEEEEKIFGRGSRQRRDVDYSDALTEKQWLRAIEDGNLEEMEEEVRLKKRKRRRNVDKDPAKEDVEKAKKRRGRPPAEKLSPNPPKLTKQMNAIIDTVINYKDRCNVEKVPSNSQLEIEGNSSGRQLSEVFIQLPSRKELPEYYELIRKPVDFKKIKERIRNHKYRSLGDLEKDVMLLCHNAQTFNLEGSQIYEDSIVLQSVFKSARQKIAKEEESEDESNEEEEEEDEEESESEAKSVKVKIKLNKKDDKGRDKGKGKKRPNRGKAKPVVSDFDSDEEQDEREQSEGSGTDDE
1-phosphatidylinositol 4,5-bisphosphate phosphodiesterase beta-3, sequence (Q01970 whole entry): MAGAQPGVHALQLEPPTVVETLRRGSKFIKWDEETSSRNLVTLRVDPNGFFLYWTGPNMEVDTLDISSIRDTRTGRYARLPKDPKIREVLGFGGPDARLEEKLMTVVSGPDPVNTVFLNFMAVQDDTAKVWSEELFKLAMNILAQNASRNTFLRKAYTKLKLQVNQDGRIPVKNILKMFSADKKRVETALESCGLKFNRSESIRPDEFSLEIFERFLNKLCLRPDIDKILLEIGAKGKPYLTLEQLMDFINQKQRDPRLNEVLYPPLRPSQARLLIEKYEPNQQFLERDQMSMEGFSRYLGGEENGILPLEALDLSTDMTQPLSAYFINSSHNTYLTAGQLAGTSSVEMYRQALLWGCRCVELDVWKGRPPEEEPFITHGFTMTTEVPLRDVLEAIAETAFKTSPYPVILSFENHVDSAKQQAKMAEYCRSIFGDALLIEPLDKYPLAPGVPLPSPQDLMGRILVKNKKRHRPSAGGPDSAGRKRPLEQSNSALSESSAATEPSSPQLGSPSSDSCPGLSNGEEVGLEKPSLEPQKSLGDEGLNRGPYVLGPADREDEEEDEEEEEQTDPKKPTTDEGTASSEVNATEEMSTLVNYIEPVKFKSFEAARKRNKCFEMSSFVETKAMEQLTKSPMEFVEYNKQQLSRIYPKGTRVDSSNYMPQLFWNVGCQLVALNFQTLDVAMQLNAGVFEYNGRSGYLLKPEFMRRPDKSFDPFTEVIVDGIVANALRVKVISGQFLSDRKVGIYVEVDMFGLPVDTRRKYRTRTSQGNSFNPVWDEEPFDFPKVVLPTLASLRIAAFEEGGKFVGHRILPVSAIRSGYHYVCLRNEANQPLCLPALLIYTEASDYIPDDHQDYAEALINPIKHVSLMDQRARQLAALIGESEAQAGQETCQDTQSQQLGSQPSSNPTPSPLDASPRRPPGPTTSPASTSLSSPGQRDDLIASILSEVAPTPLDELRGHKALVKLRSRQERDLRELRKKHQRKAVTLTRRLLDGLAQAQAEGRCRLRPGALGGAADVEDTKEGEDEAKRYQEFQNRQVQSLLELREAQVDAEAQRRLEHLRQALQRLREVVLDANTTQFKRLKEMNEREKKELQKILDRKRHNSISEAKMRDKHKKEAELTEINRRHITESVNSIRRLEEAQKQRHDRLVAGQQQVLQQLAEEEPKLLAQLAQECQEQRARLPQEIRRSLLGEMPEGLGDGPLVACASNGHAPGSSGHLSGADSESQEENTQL
Potassium channel subfamily K member 3, sequence (O14649 whole entry): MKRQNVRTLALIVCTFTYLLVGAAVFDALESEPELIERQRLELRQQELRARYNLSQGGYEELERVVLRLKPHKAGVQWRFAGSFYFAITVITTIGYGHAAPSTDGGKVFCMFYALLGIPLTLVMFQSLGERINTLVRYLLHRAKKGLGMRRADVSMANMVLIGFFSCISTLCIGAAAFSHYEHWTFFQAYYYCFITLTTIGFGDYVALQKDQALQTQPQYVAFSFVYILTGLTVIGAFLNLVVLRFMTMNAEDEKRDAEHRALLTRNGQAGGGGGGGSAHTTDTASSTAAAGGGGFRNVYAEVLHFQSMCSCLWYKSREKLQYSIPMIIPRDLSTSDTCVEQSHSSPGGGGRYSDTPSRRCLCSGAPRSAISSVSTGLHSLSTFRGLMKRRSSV
Caspase-6, sequence (P55212 24-179 limits assumed): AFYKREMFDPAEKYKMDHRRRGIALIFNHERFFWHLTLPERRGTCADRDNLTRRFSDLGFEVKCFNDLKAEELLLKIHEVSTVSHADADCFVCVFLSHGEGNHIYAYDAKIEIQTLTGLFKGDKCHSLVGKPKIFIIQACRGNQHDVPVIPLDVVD
Caspase-6, sequence (P55212 194-293 limits assumed): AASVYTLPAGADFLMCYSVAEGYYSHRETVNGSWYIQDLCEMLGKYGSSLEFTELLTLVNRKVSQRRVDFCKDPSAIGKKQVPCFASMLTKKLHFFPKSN

Structure (SMILES): COc1cccc2nc3c(C(=O)NCCN(C)C)cccc3cc12
- EC50 [1]: > 10.1 µM (inactive)
- EC50 [2]: > 91.2 µM (inactive)
- IC50 [3]: > 43.8 µM (inactive)

Structure (SMILES): Cc1cc(C2(O)C(=O)Nc3ccccc32)ccc1F (stereo not drawn)
- AC50 (Caspase-6): 13 µM (active)

Structure (SMILES): CC(C)C(NS(=O)(=O)c1c(Cl)cccc1Cl)C(=O)OCC(=O)c1c[nH]c2ccccc12 (stereo not drawn)
- IC50 [4]: > 69.5 µM (inactive)
- IC50 [5]: > 7.72 µM (active)

Structure (SMILES): C=CCNC(=O)c1ccccc1NC(=O)c1ccc(Cl)c(S(=O)(=O)Nc2cccc(C)c2C)c1
- AC50 [6]: 30.1 µM (active)
- AC50 [7]: 36.7 µM (active)

Structure (SMILES): Cc1ccc(NC(=O)c2nn(C34CC5CC(CC(C5)C3)C4)cc2[N+](=O)[O-])cc1
- IC50 [8]: > 122 µM (inactive)
- IC50 [9]: > 122 µM (inactive)

Structure (SMILES): COc1ccc(OC)c(C2C(C(=O)c3ccccc3)=C(O)C(=O)N2Cc2ccco2)c1 (stereo not drawn)
- Ki (fMet-Leu-Phe receptor): 3.4 µM (active)

Structure (SMILES): O=C(Nc1cccc(NC(=O)c2cccc(F)c2)c1)c1ccccc1
- IC50 [10]: 0.046 µM (active)

Structure (SMILES): Cc1ccc(C(=O)Nc2ncc(Cc3ccccc3)s2)o1
- AC50 [11]: 0.319 µM (active)
- AC50 [12]: 12 µM (active)

Structure (SMILES): CN(CC(=O)Nc1ccc(Cl)cc1)C(=O)c1ccc(-n2cncn2)c([N+](=O)[O-])c1
- IC50 [13]: 2 µM (active)
- IC50 [14]: 83.3 µM (inactive)
- IC50 [15]: 1.18 µM (active)
- IC50 [16]: > 83.3 µM (inactive)
